Data reported in patent US20110092517A1, “Use of PPAR Delta Ligands for the Treatment or Prevention of Inflammation or Energy Metabolism/Production Related Diseases” (Cerenis Therapeutics S.A. & Nippon Chemiphar Co., Ltd., priority 2009, published 2011).
Entries after “also recorded” stand apart in the source; their conditions may differ. Where two headings read alike, the source gives them in different places. Each block holds one compound with its values, some of them ahead of it.

Tests used:
[1] = Plasma biochemistry after 17 days of treatment in WD fed rats (glycemia, insulin, HOMA-IR, adiponectin, FFA, TG); type: in vivo, rat; details: for Decrease of HOMA-IR / Decrease of plasma insulin: 4 h fasted; for Decrease of HOMA-IR: pioglitazone 10, metformin 50, GW501516 10, compound I.1 10 mg/kg; for Decrease of plasma insulin: pioglitazone 10, metformin 50, GW501516 10, compound I.1 10 mg/kg +metformin 50 mg/kg; for Plasma adiponectin levels: pioglitazone 10, metformin 50, GW501516 10, compound I.1 3 and 10 mg/kg
rat PPARδ = target: T1, rat PPARδ (Rattus norvegicus, UniProt Q62879); experiment: GAL4-PPAR chimera transactivation assay in CV-1 cells at 10% or 0.1% serum (Example 4); type: cell-based; details: read-out: GAL4-chimera (rat) EC50 (μM) hPPARδ
T1 construct: expressed in transfected cells; host or cells: CV-1
T1 sequence (Q62879 139-440 limits assumed): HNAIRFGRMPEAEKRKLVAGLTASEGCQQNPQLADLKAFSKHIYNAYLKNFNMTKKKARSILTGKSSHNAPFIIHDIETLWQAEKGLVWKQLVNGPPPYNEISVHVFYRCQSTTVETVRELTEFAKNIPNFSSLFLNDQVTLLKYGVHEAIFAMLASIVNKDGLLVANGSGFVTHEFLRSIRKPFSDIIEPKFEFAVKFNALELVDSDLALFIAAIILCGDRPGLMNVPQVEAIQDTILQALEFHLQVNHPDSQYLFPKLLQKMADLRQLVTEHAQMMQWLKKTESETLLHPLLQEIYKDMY
Procedure: Assays were performed in triplicate for GAL4-chimeras. Experiments were repeated at least three times.
The EC50 were calculated as previously described.
The transactivation activities of the compound I.1 and GW501516 are measured in rat and mouse transactivation assays at 10% and 0.1% serum (Tables 11 and 12).

[2] = system: TNF-alpha-activated HUVECs; details: under physiological flow; cited from earlier work
TNF-α = TNF-α content in liver and epididymal white adipose tissue after 5 weeks of treatment in WD fed rats (ELISA); type: in vivo, rat; details: for Decrease of TNF-α levels in epididymal white adipose tissues: metformin 50, GW501516 10, compound I.1 10 mg/kg (alone or +metformin 50 mg/kg)
Procedure: (§1) At the end of the clamp procedure (9.5 hours fasting), perirenal, retroperitoneal, epididymal and inguinal fat pads and liver weights were recorded. Blood was collected from cardiac puncture and plasmas were stored at −80° C. for further assays if needed (depending on the radioactive state of samples). Liver triglyceride content was assessed (enzymatic-colorimetric method) as well as liver and adipose tissue TNF-α content (ELISA method).

[3] = Body weight follow-up during treatment in rats fed a high fat/medium fructose diet (WD); type: in vivo, rat; details: oral once daily, pioglitazone 10, metformin 50, GW501516 10, compound I.1 10 mg/kg (alone or +metformin 50 mg/kg)
Excerpt: The first set of rats was undergoing an OGTT after 3 weeks of treatment (half rats/group of the clamp arm) and the second set was also undergoing an OGTT after 3 weeks of treatment (half rats/group of clamp arm) and the Histology study (3 rats/group). […] Homogenous mild obese and insulin resistant rats were allocated into the different treatment groups and western diet was continued until the end of the experiment. Given that, the 2 series started with a gap of one week Dosage regimen: Rats were treated once daily via the oral route, in the morning. The duration of the treatment was between 5 and 5.5 weeks. […], 10 mg/Kg (n=12) […] The second set of rats was weighted at 8:30 on days 17 and 21, at 1:45 pm on day 24 and at 11:10 am on day 28.

[4] = Liver and adipose tissue weights after 5 weeks of treatment in WD fed rats; type: in vivo, rat; details: for Decrease of liver weight: non significant, pioglitazone 10, GW501516 10 mg/kg
Procedure: as §1

[5] = Triglycerides content in the liver after 5 weeks of treatment in WD fed rats (enzymatic-colorimetric method); type: in vivo, rat; details: pioglitazone 10, GW501516 10, compound I.1 at any used dose
Procedure: as §1

[6] = Oral glucose tolerance test after 3 weeks of treatment in WD fed rats; type: in vivo, rat; details: 6 h fasted, oral glucose 2.5 g/kg after 3 weeks, pioglitazone 10, metformin 50, GW501516 10, compound I.1 10 mg/kg
rat PPARα = target: T2, rat PPARα (Rattus norvegicus, UniProt P37230); experiment: GAL4-PPAR chimera transactivation assay in CV-1 cells at 10% or 0.1% serum (Example 4); type: cell-based; details: read-out: GAL4-chimera (rat) EC50 (μM) hPPARα
T2 construct: expressed in transfected cells; host or cells: CV-1
T2 sequence (P37230 239-466 limits assumed): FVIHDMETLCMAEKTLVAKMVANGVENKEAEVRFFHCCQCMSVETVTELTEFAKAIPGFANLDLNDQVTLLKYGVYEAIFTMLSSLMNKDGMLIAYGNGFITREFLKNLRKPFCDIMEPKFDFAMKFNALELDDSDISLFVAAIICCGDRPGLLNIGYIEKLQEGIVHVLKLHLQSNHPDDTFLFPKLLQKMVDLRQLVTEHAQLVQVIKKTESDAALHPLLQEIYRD

[7] = Euglycemic-hyperinsulinemic 2 steps clamp with 3H-glucose after 5 weeks of treatment in WD fed rats; type: in vivo, rat; details: for Increase of glycolysis: metformin 50, GW501516 10, compound I.1 10 mg/kg (alone or +metformin 50 mg/kg); for Increase of GIR (glucose infusion rate) during the first step / Decrease of HGP (hepatic glucose production): clamp 0.2 U/kg/h insulin, pioglitazone 10, metformin 50, compound I.1 10 mg/kg +metformin 50 mg/kg
Procedure: After 4 weeks of treatment, a catheter was implanted into the femoral vein under isoflurane anaesthesia and a period of 5-6 days was respected for recovery. […] The morning of the clamp procedure, rats were treated and fasted for 6 hours prior to tracer, glucose and insulin infusions. The beginning of the clamp procedure was performed in the middle of the dark cycle.
The euglycemic hyperinsulinemic 2 steps insulin clamp was performed using 0.2 U/kg/h and 0.8 U/kg/h insulin infusion associated with 3H-glucose infusion. We then assessed:
During the clamp procedure, a bolus (30 μCi) of D-[3-3H]glucose was first injected followed by 4 μCi/min/kg infusion rate during all the experiment to ensure a detectable plasma D[3-3H]glucose enrichment. A bolus of insulin (100 mU) was first injected, and insulin was then infused at a rate of 0.2 U/kg/h for the first 2 hours and 0.8 U/kg/h from 120 minutes to 210 minutes.
Throughout the infusion, glycaemia was assessed with a blood glucose meter from the tip of the tail vein when needed. Euglycemia was maintained by periodically (every 10 minutes) adjusting a variable infusion of 30% glucose. Plasma glucose concentrations and D-[3-3H]glucose specific activity were determined during stable phase in 10 μl of blood sampled from the tip of the tail vein every 20 minutes from 60 to 120 minutes during the first step and from 150 to 210 minutes during the second step.
For glucose turnover measurements, D-[3-3H]glucose enrichments were determined from total blood after deproteinization by a Zn(OH)2 precipitate. Briefly, an aliquot of the supernatant was evaporated to dryness to determine the radioactivity corresponding to D-3-3H. In a second aliquot of the same supernatant, glucose concentration was assessed by the glucose oxidase method (Biomérieux, France).
Calculations for glucose turnover measurements were made from parameters obtained during the infusions in steady-state condition ([…]). Briefly, the D-[3-3H]glucose specific activity was calculated by dividing the D-[3-3H]glucose enrichment by the plasma glucose concentration. The whole body glucose turnover rate was calculated by dividing the rate of D[3-3H]glucose by the D-[3-3H]glucose plasma specific activity. For each rat, the mean values were calculated and averaged with values from rats of the same group. The whole body glycolysis rate was measured by assessing the amount of tritiated water accumulated in the blood during the 3H-glucose infusion and the whole body glycogen synthesis rate was calculated by the difference between the whole body glucose turnover and the whole body glycolysis rate.

EC50 (rat PPARδ; 0.1% serum): 0.072 ± 0.025 µM
EC50 (rat PPARδ; 10% serum): 0.427 ± 0.29 µM
EC50 (rat PPARα; 0.1% serum): 1.96 ± 0.7 µM
EC50 (rat PPARα; 10% serum): > 10 µM
Structure (SMILES): Cc1cc(SCc2sc(-c3ccc(C(F)(F)F)cc3)nc2C)ccc1OCC(=O)O [GW-501516]
Decrease of HOMA-IR [1]: ~25%
Decrease of plasma insulin [1]: 21%
Increase of plasma TG ([1]; GW501516 10 mg/kg, compound I.1 10 mg/kg +metformin 50 mg/kg): 84%
Plasma adiponectin levels [1]: prevented the decrease
Rolling and adhesion of hPMNs on TNF-alpha-activated HUVECs [2]: inhibited markedly
TNF-α content in the liver (TNF-α; compound I.1 10 mg/kg +metformin 50 mg/kg, GW501516 10 mg/kg, other groups): tended to decreased
Decrease of TNF-α levels in epididymal white adipose tissues (TNF-α): 60%
Decrease of TNF-α level in the liver (TNF-α; tendency, compound I.1 10 mg/kg +metformin 50 mg/kg, GW501516 10 mg/kg): 12%
Body weight / body weight gain during treatment [3]: slightly decreased body weight the first week of treatment but not in a significant manner; also recorded: significant after 4 weeks of treatment
Decrease of liver weight [4]: 8%
Triglycerides content in the liver [5]: tended to decrease; also recorded: did not significantly decrease
Glucose tolerance (OGTT, AUC, glycemia variation) [6]: strong tendency to improved glucose tolerance
Increase of glycolysis ([7]; clamp 0.8 U/kg/h insulin): 21%

Structure (SMILES): CN(C)C(=N)N=C(N)N [metformin]
Decrease of HOMA-IR [1]: ~50%
Decrease of plasma insulin [1]: 44%
Plasma adiponectin levels [1]: did not prevent a decrease
Decrease of TNF-α levels in epididymal white adipose tissues (TNF-α): 25%
Body weight / body weight gain during treatment [3]: decreased
Body weight / body weight gain during treatment ([3]; listed as Metformin): significantly decreased body weight after 2 weeks of treatment
Decrease of perirenal white adipose tissue ([4]; tendency, metformin 50 mg/kg alone or with compound I.1 10 mg/kg): 27%
Insulin resistance / insulin sensitizing effect (overall) ([7]; WD fed rats, after 5 weeks, compound I.1 dose not specified (3 and 10 mg/kg groups), pioglitazone 10, metformin 50 mg/kg): insulin sensitizing effects
Whole body glucose oxidation ([7]; WD fed rats, clamp after 5 weeks, metformin 50 mg/kg, compound I.1 dose not specified, alone or associated): tended to increase
Increase of GIR (glucose infusion rate) during the first step ([7]; after 5 weeks): 112%
Decrease of HGP (hepatic glucose production) [7]: 40%
GIR during the second step ([7]; clamp 0.8 U/kg/h insulin, after 5 weeks, pioglitazone 10, metformin 50 mg/kg, other groups): tended to increase GIR (not significantly)
Increase of glycolysis ([7]; clamp 0.8 U/kg/h insulin): 20%

Structure (SMILES): CCc1ccc(CCOc2ccc(CC3SC(=O)NC3=O)cc2)nc1 (centres unmarked) [pioglitazone]
Decrease of HOMA-IR [1]: ~50%
Decrease of plasma insulin [1]: 39%
Decrease of liver weight [4]: 12%
Increase of GIR (glucose infusion rate) during the first step ([7]; after 5 weeks): 138%
Decrease of HGP (hepatic glucose production) [7]: 47%
